The source of these data is US6436913B1, “Use of estramustine phosphate in the treatment of bone metastasis” (Pharmacia & Upjohn Company, priority 2000, dated 2002).

The subject of one series is mouse calvaria. Briefly: Bone resorption assay, organ culture with 45Ca-prelabeled mouse calvaria (PTH-stimulated 45Ca release). Format: cell-based. The following applies: for Bone resorption (45Ca release), result in words: in vitro mouse calvaria, compound present during culture; for Resorption / PTH-stimulated 45Ca release, result in words / Resorption, result in words: present only during preincubation; for Resorption / PTH-stimulated 45Ca release, result in words: then washed away. As for the experimental part:
This example used the organ culture technique with mouse calvaria.
The organ culture technique was used with ^45Ca-prelabeled mouse calvaria. The method has been described by Lerner (1987) and Ljunggren et al. (1991). Newborn mice were injected subcutaneously with ^45CaCl (1.5 μCi/animal). After four days their calvaria were dissected, split into quarters and preincubated in phenol red free CMRL 1066 medium supplemented with 0.1% bovine serum albumin and 50 μg/ml gentamicin for 24 hours at 37° C. in a humidified atmosphere of 5% CO2 in air in the presence of indomethacin (1 μmol/l) and 10 nmol/l bovine parathyroid hormone (PTH). After washing the bone pieces, the medium was changed and cultures incubated for three more days in the same medium but without indomethacin in the presence or absence of estramustine phosphate or clodronate. Resorption was measured by assaying the ^45Ca liberated into the medium using a standard technique for liquid scintillation counting. Total ^45Ca was determined after hydrolysing the calvaria in 6 mol/l HCI overnight. Bone resorption was studied in various concentrations of estramustine phosphate and the effect of estramusine phosphate present only during the preincubation stage was checked in order to study its cytotoxcity.
Results are expressed as mean±SEM, n=5 or 10. Inhibition percentage was calculated as follows
Inhibition %=^45Ca released control bones (%)−^45Ca released from sample bones (%) ^45Ca released control bones*100

Series [1] can be described thus: Mutual bioavailability of estramustine phosphate and clodronate: serum AUC0-24h and Cmax in patients. As to conditions: for AUC0-24h Estracyt: serum, mean; for AUC0-24h and Cmax, drug alone versus concomitantly with the other drug / Bioavailability, effect of adding the other drug: patients, clodronate 3200 mg and estramustine phosphate 560 mg daily.
Description: (§1) The first group of six patients were given 3200 mg daily of clodronate only for four days. On the fifth day the AUC0-24h for the drug was calculated from serum concentrations of repeated blood samples. On the sixth day, 560 mg estramustine phosphate was add per oral to the clodronate treatment for the following four days. On day ten, the AUC0-24h for both drugs was calculated.
(§2) The second group of six patients were give orally 560 mg daily of estramustine phosphate only for four days. On the fifth day the AUC0-24h for the drug was calculated from serum concentrations of repeated blood samples. On the sixth day, 3200 mg clodronate was added to the estramustine phosphate treatment for the following four days. On day ten, the AUC0-24h for both drugs was calculated. The clodronate was provided as 400 mg capsules, and the estramustine phosphate used was estracyt in 140 mg capsules.
(§3) The method used in the analysis of the serum estramustine phosphate concentrations measures estrone and is insensitive to any metabolites. The estradiol-related metabolites (estramustine and estradiol) were not analyized in connection with the bioanalysis.
A short description of a further series: clinical. As to conditions: male, human, serum, oral, 3200 mg.
The mark [2] stands for this setting: Experiment 2 (compound present only during preincubation), 100 μmol/l, mean±SEM.

The structures appear in SMILES notation.

Description for clinical: as §1, §2, §3

As to `C[C@]12CC[C@@H]3c4ccc(OC(=O)N(CCCl)CCCl)cc4CC[C@H]3[C@@H]1CC[C@@H]2OP(=O)([O-])[O-].[Na+].[Na+]` [Estramustine phosphate, Estramustine phosphate sodium], the “45Ca-release (%)” value with mouse calvaria (Experiment 1, 0.01 μmol/l, mean±SEM) is recorded as 51.5 ± 3.0%; with mouse calvaria (Experiment 1, 0.1 μmol/l, mean±SEM), 50.6 ± 1.6%; in the series on mouse calvaria (Experiment 1, 1 μmol/l, mean±SEM) it was 55.4 ± 2.9%; in the series on mouse calvaria (Experiment 1, 10 μmol/l, mean±SEM) it was 34.7 ± 3.1%; with mouse calvaria (Experiment 1, 100 μmol/l, mean±SEM) it was 16.7 ± 0.2%; in the series on mouse calvaria (Experiment 1, 1000 μmol/l (precipitate), mean±SEM) it was 24.0 ± 2.2%. For the same compound, the “45Ca-release (%)” value in the series with mouse calvaria (setting [2]) came to 11.9 ± 0.6%. For the same compound, the Inhibition % in the series with mouse calvaria (Experiment 1, 0.01 μmol/l, mean±SEM, n=5 or 10) is 5.5 ± 5.5%; in the series on mouse calvaria (Experiment 1, 0.1 μmol/l, mean±SEM, n=5 or 10), 7.2 ± 2.9%; in the series on mouse calvaria (Experiment 1, 1 μmol/l, mean±SEM, n=5 or 10) it was 2.0 ± 5.4%; with mouse calvaria (Experiment 1, 10 μmol/l, mean±SEM, n=5 or 10), 34.7 ± 3.1%; in the series with mouse calvaria (Experiment 1, 100 μmol/l, mean±SEM, n=5 or 10), 65.3 ± 2.3%; in the series on mouse calvaria (Experiment 1, 1000 μmol/l (precipitate noted for estramustine phosphate), mean±SEM) it was 55.9 ± 0.6%. Besides, the Inhibition % is −17.9 ± 8.7% with mouse calvaria (Experiment 2 (compound present only during preincubation), 10 μmol/l, mean±SEM) and 70.4 ± 1.4% in the series on mouse calvaria (setting [2]). For the same compound, the “Bone resorption (45Ca release), result in words” value was “inhibited bone resorption in this in vitro model concentration-dependently and about as effectively as clodronate” in the series on mouse calvaria; “dose-dependently inhibited” in the series on mouse calvaria (listed as estramustine phosphate sodium). The “Resorption / PTH-stimulated 45Ca release, result in words” value in the series with mouse calvaria is “PTH could not stimulate ^45Ca release from bones”. Also, the “Resorption, result in words” value is on record as “slightly increased” with mouse calvaria (10 μmol/l) and “strongly inhibited” in the series with mouse calvaria (100 μmol/l). The “AUC0-24h Estracyt” value in series [1] (Estracyt 560 mg daily concomitantly with Clodronate 3200 mg) worked out at 84.74 µmol·h/L; in series [1] (Estracyt only, 560 mg daily orally) it was 47.38 µmol·h/L. Besides, the “AUC0-24h and Cmax, drug alone versus concomitantly with the other drug” value in series [1] is on record as “differed statistically”. Besides, the “Bioavailability, effect of adding the other drug” value in series [1] is on record as “almost doubled”.

Broadly, the inhibition is the percentage by which the read-out fell short of the control. One may read the AUC(0-t) as the area under the concentration-time curve up to a stated or last time point. A lower AUC(0-t) goes with less exposure. Usually Cmax stands for the peak of the concentration-time curve. The compound `O=P(O)(O)C(Cl)(Cl)P(=O)(O)O` [Clodronate, Disodium clodronate] registered an inhibition at 0.1 µM in the series with mouse calvaria (Mus musculus, Experiment 1, 0.1 μmol/l, mean±SEM, n=5 or 10) of 0.9 ± 1.2%. Moreover, 1 µM produced 3.5 ± 4.2% inhibition in the series on mouse calvaria (Mus musculus, Experiment 1, 1 μmol/l, mean±SEM, n=5 or 10). Besides, in the series on mouse calvaria (Mus musculus, Experiment 1, 10 μmol/l, mean±SEM, n=5 or 10), the inhibition at 10 µM turned out to be 28.3 ± 3.8%. Further, testing at 100 µM in the series on mouse calvaria (Mus musculus, Experiment 1, 100 μmol/l, mean±SEM, n=5 or 10) gave an inhibition of 51.4 ± 1.9%. Also, the inhibition at 1000 µM with mouse calvaria (Mus musculus, Experiment 1, 1000 μmol/l (precipitate noted for estramustine phosphate), mean±SEM) came out at 25.7 ± 6.6%. The inhibition at 100 µM in the series with mouse calvaria (Mus musculus, Experiment 2 (compound present only during preincubation), 100 μmol/l, mean±SEM) was 55.9 ± 0.5%. Also, in the series on mouse calvaria, the “Resorption / PTH-stimulated 45Ca release, result in words” value is reported as “also inhibits resorption”. In the series “clinical”, this compound came in with an AUC(0-t) of 19300 ng·h/mL and a Cmax of 1580 ng/mL. Further, in series [1], the “AUC0-24h and Cmax, drug alone versus concomitantly with the other drug” value is listed as “did not differ significantly”; the “Bioavailability, effect of adding the other drug” value is “no effect”.
